Test results: US20190352276A1, “INHIBITORS OF BRUTON'S TYROSINE KINASE” (Joint Stock Company "Biocad", priority 2016, published 2019)

Legend:
[1] = Chemical stability in artificial gastric fluid (SGF without enzymes); settings: 10 μM in SGF without enzymes, pH=1.4, 37° C.
[2] = General cytotoxicity on HepG2 cells (CC50; therapeutic index CC50 HepG2/IC50 Mino); type: cell-based; settings: human, HepG2 cells (hepatocellular carcinoma), 72 hours, Alamar Blue
Procedure: (§1) The CC50 values were determined in the test for General cytotoxicity on HepG2 cells (hepatocellular carcinoma, ATCC® HB-8065™). 2*10^4 cells (in 50 μl) per well were seeded in 96-well plates (Corning, #3599) in DMEM medium (PanEco, #S420p), after 24 h of incubation 150 μl of candidate compounds were added to each well in the range of final concentrations from 200 μM to 4 μM and the plate was incubated in a total volume of 200 μl for 72 hours. Viability of the cells was assessed using Alamar Blue dye (Invitrogen, #DAL 1100). CC50 was determined similarly (table 10).
(§2) The relationship between toxic (CC50) and a therapeutic (IC50) effects of the dose is the therapeutic index, which can be expressed as the ratio between CC50 (HepG2) (general cytotoxicity of the candidate) and IC50 (Mino) (antiproliferative activity on the target cells): […]

[3] = system: HepG2 cells (hepatocellular carcinoma); test: as above; type: cell-based; settings: therapeutic index
Procedure: as §1, §2

[4] = system: Mino (mantle cell lymphoma); test: Antiproliferative activity, Mino cells (Alamar Blue); type: cell-based; settings: Homo sapiens
Procedure: (§3) Antiproliferative activity of BTK inhibitors was measured in cell-based bioassay on B-cells cultures: Mino (mantle cell lymphoma, ATCC® CRL-3000™), Z-138 (mantle cell lymphoma, ATCC® CRL-3001™) and DOHH2 (follicular lymphoma, Creative Bioarray CSC-C0219) using cell viability reagent Alamar Blue (Invitrogen, #DAL 1100). Cells were cultured in 10% FB S-supplemented (HyClone, #SH3008803/Gibco, #16140-071) RPMI-1640 (PanEco, #S330p) for at least 1 passage after thawing, washed with PBS and passaged in 96-well culture plates (Corning, #3599) with growth medium with 10% FBS (HyClone, #SH3008803/Gibco, #16140-071) and antibiotic (50 μg/ml of gentamicin (Biolot, #1.3.16))≈3*10^4 cells in 50 μl of medium per well.
(§4) The compounds were dissolved in DMSO and diluted with the assay medium to final concentrations ranging from […]. 150 μl of each diluted compound were then added to each well (final concentration of DMSO was less than 1%) and incubated at 37° C. in an incubator under 5% of CO2 for 72 h. After incubation, 20 μl of Alamar Blue reagent (Invitrogen, #DAL1100) were added to each well. The plates were shaked on an orbital shaker (Biosan, Latvia) and then incubated for 14-16 hours at 37° C. in the incubator.
(§5) The number of living cells were estimated, measuring the fluorescence signal at the excitation wavelength (REx) of 540 nm and the emission wavelength (λEm) of 590 nm on a microplate reader (Tecan Infinite M200Pro, Switzerland).
(§6) For each compound, IC50 was calculated using Magellan 7.2 software (Tecan, Switzerland) approximating experimental points by four-parameter logistic model with the optimization by Levenberg-Marquardt.

[5] = system: Z-138 (mantle cell lymphoma); test: Antiproliferative activity, Z-138 cells (Alamar Blue); type: cell-based; settings: Homo sapiens
Procedure: as §3, §4, §5, §6

[6] = Table 10, average of several tests
[7] = Table 10, 72 h, average of several tests

Structure (SMILES) | Amount of substance in the sample in % (chemical stability) [1] [%] | IC50 [4, 7] [µM] | IC50 [5, 7] [µM] | CC50 at 72 h [2, 6] [µM] | CC50 (HepG2)/IC50 (Mino) ([3]; Table 10) | also measured
C=CC(=O)N1CCC[C@@H](n2nc(-c3cnc(C(=O)Nc4cc(C(F)(F)CC)ccn4)nc3)c3cncc(Cl)c32)C1 [BCD-BTK - 293, (R)-5-(1-(1-acryloylpiperidin-3-yl)-7-chloro-1H-pyrazolo[4,3-c]pyridin-3-yl)-N-(4-(1,1-difluoropropyl)pyridin-2-yl)pyrimidine-2-carboxamide] | 98.4 | – | – | – | – | –
CC#CC(=O)N1CCC[C@@H](n2nc(-c3ccc(C(=O)Nc4ccccn4)cc3)c3c(N)ncc(Cl)c32)C1 [BCD-BTK - 295, (R)-4-(4-amino-1-(1-(but-2-ynoyl)piperidin-3-yl)-7-chloro-1H-pyrazolo[4,3-c]pyridin-3-yl)-N-(pyridin-2-yl)benzamide] | 89.5 | – | – | – | – | –
C=CC(=O)N1CCC[C@@H](n2nc(-c3ccc(-n4ccc(=O)cc4)cc3)c3c(N)ncc(Cl)c32)C1 [BCD-BTK-9, (R)-1-(4-(1-(1-acryloylpiperidin-3-yl)-4-amino-7-chloro-1H-pyrazolo[4,3-c]pyridin-3-yl)phenyl)pyridin-4(1H)-one] | 100.0 | 23.5 | 44.1 | > 100 | >4.25 | –
C=CC(=O)N1CCC[C@@H](n2nc(-c3ccc(-n4ccc(=O)cc4)cc3)c3c(Cl)c(O)cnc32)C1 [BCD-BTK-13, (R)-1-(4-(1-(1-acryloylpiperidin-3-yl)-4-chloro-5-hydroxy-1H-pyrazolo[3,4-b]pyridin-3-yl)phenyl)pyridin-4(1H)-one] | 91.0 | 37.1 | > 50 | > 100 | >2.70 | –
C=CC(=O)N1CCC[C@@H](n2nc(-c3ccc(-n4ccc(=O)cc4)cc3)c3cncc(Cl)c32)C1 [BCD-BTK-30, (R)-1-(4-(1-(1-acryloylpiperidin-3-yl)-7-chloro-1H-pyrazolo[4,3-c]pyridin-3-yl)phenyl)pyridin-4(1H)-one] | 97.7 | 15.6 | 22.7 | 61.5 | 3.94 | –
C=CC(=O)N1CCC[C@@H](n2nc(-c3ccc(-n4ccc(=O)cc4)nc3)c3cncc(Cl)c32)C1 [BCD-BTK-56, (R)-5′-(1-(1-acryloylpiperidin-3-yl)-7-chloro-1H-pyrazolo[4,3-c]pyridin-3-yl)-4H-[1,2′-bipyridin]-4-one] | 99.0 | 32.5 | 30.5 | > 50 | >1.54 | –
C=CC(=O)N1CCC[C@@H](n2nc(-c3cnc(-n4ccc(=O)cc4)nc3)c3c(N)ncc(Cl)c32)C1 [BCD-BTK-74, (R)-1-(5-(1-(1-acryloylpiperidin-3-yl)-4-amino-7-chloro-1H-pyrazolo[4,3-c]pyridin-3-yl)pyrimidin-2-yl)pyridin-4(1H)-one] | 98.7 | 21.9 | 17.6 | 100 | 4.57 | –
C=CC(=O)N1CCC[C@@H](n2nc(-c3ccc(-n4ccc(=O)cc4)nc3)c3c(N)ncc(Cl)c32)C1 [BCD-BTK-76, (R)-5′-(1-(1-acryloylpiperidin-3-yl)-4-amino-7-chloro-1H-pyrazolo[4,3-c]pyridin-3-yl)-4H-[1,2′-bipyridin]-4-one] | 99.7 | 16 | 19.6 | > 100 | >6.27 | –
C=CC(=O)N1CCC[C@@H](n2nc(-c3ccc(C(=O)Nc4cccc(F)n4)cc3)c3cncc(Cl)c32)C1 [BCD-BTK-225, (R)-4-(1-(1-acryloylpiperidin-3-yl)-7-chloro-1H-pyrazolo[4,3-c]pyridin-3-yl)-N-(6-fluoropyridin-2-yl)benzamide] | 100 | – | – | – | – | –
C=CC(=O)N1CCC[C@@H](n2nc(-c3ccc(C(=O)Nc4ccc(F)cn4)cc3)c3cncc(C#N)c32)C1 [BCD-BTK-227, (R)-4-(1-(1-acryloylpiperidin-3-yl)-7-cyano-1H-pyrazolo[4,3-c]pyridin-3-yl)-N-(5-fluoropyridin-2-yl)benzamide] | 100 | – | – | – | – | –
C=CC(=O)N1CCC[C@@H](n2nc(-c3ccc(C(=O)Nc4cc(C(F)(F)F)ccn4)cc3)c3cncc(F)c32)C1 [BCD-BTK-245, (R)-4-(1-(1-acryloylpiperidin-3-yl)-7-fluoro-1H-pyrazolo[4,3-c]pyridin-3-yl)-N-(4-(trifluoromethyl)pyridin-2-yl)benzamide] | 100 | – | – | – | – | –
C=CC(=O)N1CCC[C@@H](n2nc(-c3ccc(C(=O)Nc4ncccc4F)cc3)c3cncc(F)c32)C1 [BCD-BTK-249, (R)-4-(1-(1-acryloylpiperidin-3-yl)-7-fluoro-1H-pyrazolo[4,3-c]pyridin-3-yl)-N-(3-fluoropyridin-2-yl)benzamide] | – | 28.8 | > 50 | ~100 | >3.47 | –
CC#CC(=O)N1CC[C@@H](n2nc(-c3ccc(C(=O)Nc4ccccn4)cc3)c3cncc(Cl)c32)C1 [BCD-BTK-262, (R)-4-(1-(1-(but-2-ynoyl)pyrrolidin-3-yl)-7-chloro-1H-pyrazolo[4,3-c]pyridin-3-yl)-N-(pyridin-2-yl)benzamide] | 100 | – | – | – | – | –
C=CC(=O)N1CCC[C@@H](n2nc(-c3ccc(Oc4ccccc4)cc3)c3c(N)ncnc32)C1 [Ibrutinib, ibrutinib, reference compound] | – | – | – | – | – | CC50 at 72 h ([2]; Table 11): 54.9 µM; CC50 (HepG2)/IC50 (Mino) ([3]; Table 11): 5.98; IC50 ([4]; Table 11, 72 h): 9.18 µM; IC50 ([5]; Table 11, 72 h): 15.1 µM

Continued, in another order:

Amount of substance in the sample in % (chemical stability) [1] [%] | IC50 [4, 7] [µM] | IC50 [5, 7] [µM] | Structure (SMILES) | CC50 at 72 h [2, 6] [µM] | CC50 (HepG2)/IC50 (Mino) ([3]; Table 10) | also measured
100 | – | – | CC#CC(=O)N1CC[C@H](n2nc(-c3ccc(C(=O)Nc4ccccn4)cc3)c3cncc(Cl)c32)C1 [BCD-BTK-271, (S)-4-(1-(1-(but-2-ynoyl)pyrrolidin-3-yl)-7-chloro-1H-pyrazolo[4,3-c]pyridin-3-yl)-N-(pyridin-2-yl)benzamide] | – | – | –
100 | – | – | C=CC(=O)N1CC[C@@H](n2nc(-c3ccc(C(=O)Nc4ccccn4)cc3)c3cncc(Cl)c32)C1 [BCD-BTK-275, (R)-4-(1-(1-acryloylpyrrolidin-3-yl)-7-chloro-1H-pyrazolo[4,3-c]pyridin-3-yl)-N-(pyridin-2-yl)benzamide] | – | – | –
100 | – | – | C=CC(=O)N1CC(Cn2nc(-c3ccc(C(=O)Nc4ccccn4)cc3)c3cncc(Cl)c32)C1 [BCD-BTK-276, 4-(7-chloro-1-{[1-(prop-2-enoyl)azetidin-3-yl]methyl}-1H-pyrazolo[4,3-c]pyridin-3-yl)-N-(pyridin-2-yl)benzamide] | – | – | –
100 | – | – | C=CC(=O)N1CCC[C@@H](Cn2nc(-c3ccc(C(=O)Nc4ccccn4)cc3)c3cncc(Cl)c32)C1 [BCD-BTK-279, (R)-4-(1-((1-acryloylpiperidin-3-yl)methyl)-7-chloro-1H-pyrazolo[4,3-c]pyridin-3-yl)-N-(pyridin-2-yl)benzamide] | – | – | –
– | 5.63 | 4.67 | CC#CC(=O)N1CC(n2nc(-c3ccc(Oc4ccncc4)cc3)c3cncc(Cl)c32)C1 [BCD-BTK-281, 1-(3-(7-chloro-3-(4-(pyridin-4-yloxy)phenyl)-1H-pyrazolo[4,3-c]pyridin-1-yl)azetidin-1-yl)but-2-yn-1-one] | 15.8 | 2.81 | –
– | 4.02 | 4.3 | C=CC(=O)N1CC(n2nc(-c3ccc(Oc4ccncc4)cc3)c3cncc(Cl)c32)C1 [BCD-BTK-282, 1-(3-(7-chloro-3-(4-(pyridin-4-yloxy)phenyl)-1H-pyrazolo[4,3-c]pyridin-1-yl)azetidin-1-yl)prop-2-en-1-one] | 9.45 | 2.35 | –
